# Measurements taken from the supplement of paper PMC5770543.
# ± gives the standard deviation.
# How the values were obtained:
# [1] = test system: Plasmodium falciparum 3D7; assay: EC50 growth inhibition (60 h, SYBR Green); details: stage: ring-stage start
# [2] = test system: Toxoplasma gondii RH tachyzoites; assay: % growth inhibition vs DMSO (48 h luciferase); higher = more inhibition; details: 10 µM
# [3] = test system: Plasmodium falciparum 3D7; assay: % inhibition of schizont-to-ring transition vs DMSO; higher = more inhibition
# Procedure, shortened: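 Schizont-to-ring transition inhibition is the formation of new rings relative to vehicle controls. Tightly synchronised P. falciparum schizonts at about 40–42 hours post-invasion (1% parasitemia, 2.5% hematocrit, AlbuMAX-supplemented RPMI) were treated with compound at 1, 3 or 10 µM, alongside vehicle and positive controls. After glutaraldehyde fixation, Triton permeabilisation and Hoechst 33342 staining, at least 100,000 events were counted by flow cytometry, and values are the mean of three experiments.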
# [4] = test system: Toxoplasma gondii RH tachyzoites; assay: plaque count per well; higher = less inhibition; extreme values may be limits of the assay; details: 10 µM; 8-10 days
# Experimental: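 T. gondii RH tachyzoites expressing firefly luciferase were grown in HFF monolayers for 48 h with compound. % growth inhibition at 10 µM and EC50 (2-fold dilutions from 10 µM) were read by luminescence relative to 1% DMSO; EC50 listed as 10 (not determined, <80% inhibition) is left out. Plaque assays: 50 tachyzoites per well with 10 µM compound for 8-10 days, giving plaque count and area by crystal violet/ImageJ. Egress: median time to egress after 1 µM A23187 ionophore following 24 h of 10 µM compound (DMSO ~1.8 min; >10 = no egress within 10 min).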
# 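For % growth inhibition vs DMSO (48 h luciferase) in this document: tested in triplicate wells of 96-well plates on confluent HFF monolayers, with 1% DMSO wells as negative control in four replicates.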
structure (smiles),measurement,setting,value
COc1cc2cc(C(=O)Nc3ccccc3)c(N)nc2cc1OC,EC50 growth inhibition,[1],847 nM
same,% growth inhibition,[2],78.1 ± 1.2%
same,% inhibition of schizont-to-ring transition,[3]; 1 µM,8.51%
same,% inhibition of schizont-to-ring transition,[3]; 3 µM,35.6%
same,% inhibition of schizont-to-ring transition,[3]; 10 µM,57.9%
CC1CN(C(=O)c2sc3ccccc3c2Cl)CC(C)O1 (stereo not given),EC50 growth inhibition,[1],29.1 nM
same,% growth inhibition,[2],74 ± 3.4%
same,% inhibition of schizont-to-ring transition,[3]; 1 µM,15.7%
same,% inhibition of schizont-to-ring transition,[3]; 3 µM,21.4%
same,% inhibition of schizont-to-ring transition,[3]; 10 µM,24.2%
CCCn1c(=N)c(C(=O)NC2CCCCC2)cc2c(=O)n3cccc(C)c3nc21,EC50 growth inhibition,[1],3810 nM
same,% growth inhibition,[2],71.06 ± 0.62%
same,% inhibition of schizont-to-ring transition,[3]; 1 µM,1.41%
same,% inhibition of schizont-to-ring transition,[3]; 3 µM,20.4%
same,% inhibition of schizont-to-ring transition,[3]; 10 µM,53.1%
Cc1ccc(Nc2nc(-c3ccccn3)cs2)cc1,EC50 growth inhibition,[1],3060 nM
same,% growth inhibition,[2],99.62 ± 0.17%
same,% inhibition of schizont-to-ring transition,[3]; 1 µM,24.9%
same,% inhibition of schizont-to-ring transition,[3]; 3 µM,40.7%
same,% inhibition of schizont-to-ring transition,[3]; 10 µM,28.2%
CCOc1ccccc1NC(=O)CN1CCN(C(=O)c2ccco2)CC1,% growth inhibition,[2],< 0%
same,% inhibition of schizont-to-ring transition,[3]; 1 µM,43.4%
same,% inhibition of schizont-to-ring transition,[3]; 3 µM,49.8%
same,% inhibition of schizont-to-ring transition,[3]; 10 µM,60%
same,plaque count per well,[4],35
O=C(NCc1ccco1)C1CCN(S(=O)(=O)c2ccc(Br)cc2)CC1,EC50 growth inhibition,[1],397 nM
same,% growth inhibition,[2],52.8 ± 11%
same,% inhibition of schizont-to-ring transition,[3]; 1 µM,14.5%
same,% inhibition of schizont-to-ring transition,[3]; 3 µM,30.4%
same,% inhibition of schizont-to-ring transition,[3]; 10 µM,54.8%
CC(C)(C)c1ccc(C(=O)Nc2nc3ccccc3s2)cc1,% growth inhibition,[2],12.1 ± 13%
same,% inhibition of schizont-to-ring transition,[3]; 1 µM,44.3%
same,% inhibition of schizont-to-ring transition,[3]; 3 µM,45.2%
same,% inhibition of schizont-to-ring transition,[3]; 10 µM,54.4%
same,plaque count per well,[4],33
Cc1cc(NCCN2CCCCC2)c2ccc3ccccc3c2n1,EC50 growth inhibition,[1],123 nM
same,% growth inhibition,[2],78.3 ± 6.7%
same,% inhibition of schizont-to-ring transition,[3]; 1 µM,46.4%
same,% inhibition of schizont-to-ring transition,[3]; 3 µM,52.1%
same,% inhibition of schizont-to-ring transition,[3]; 10 µM,69.7%
O=C(Nc1nc(-c2ccccn2)cs1)c1ccccc1Br,EC50 growth inhibition,[1],2160 nM
same,% growth inhibition,[2],98.44 ± 0.08%
same,% inhibition of schizont-to-ring transition,[3]; 1 µM,11%
same,% inhibition of schizont-to-ring transition,[3]; 3 µM,13.5%
same,% inhibition of schizont-to-ring transition,[3]; 10 µM,34.1%
CCOc1c(Cl)cc(CNCC(O)c2ccccc2)cc1OC (stereo not given),EC50 growth inhibition,[1],956 nM
same,% growth inhibition,[2],21.7 ± 8.2%
same,% inhibition of schizont-to-ring transition,[3]; 1 µM,11.2%
same,% inhibition of schizont-to-ring transition,[3]; 3 µM,15.1%
same,% inhibition of schizont-to-ring transition,[3]; 10 µM,50.5%
CCCCOC(=O)c1ccc(Nc2cc(C)nc3ccc(OC)cc23)cc1,EC50 growth inhibition,[1],248 nM
same,% growth inhibition,[2],69 ± 12%
same,% inhibition of schizont-to-ring transition,[3]; 1 µM,29%
same,% inhibition of schizont-to-ring transition,[3]; 3 µM,59.5%
same,% inhibition of schizont-to-ring transition,[3]; 10 µM,65.9%
CC(C)(C)c1ccc2c(c1)CN(Cc1ccc(Cl)cc1)CO2,EC50 growth inhibition,[1],1120 nM
same,% growth inhibition,[2],34.1 ± 8.2%
same,% inhibition of schizont-to-ring transition,[3]; 1 µM,16.8%
same,% inhibition of schizont-to-ring transition,[3]; 3 µM,49.9%
same,% inhibition of schizont-to-ring transition,[3]; 10 µM,66.2%
COc1ccc(C2N(C)c3ccccc3N2C)cc1,% growth inhibition,[2],15.2 ± 13%
same,% inhibition of schizont-to-ring transition,[3]; 1 µM,< 0%
same,% inhibition of schizont-to-ring transition,[3]; 3 µM,< 0%
same,% inhibition of schizont-to-ring transition,[3]; 10 µM,11.8%
same,plaque count per well,[4],28
Cc1ccc(C)c(Cn2c(N3CCC(C(=O)NCc4cccs4)CC3)nc3ccccc32)c1,EC50 growth inhibition,[1],6140 nM
same,% growth inhibition,[2],79.1 ± 1.9%
same,% inhibition of schizont-to-ring transition,[3]; 1 µM,18.6%
same,% inhibition of schizont-to-ring transition,[3]; 3 µM,69.7%
same,% inhibition of schizont-to-ring transition,[3]; 10 µM,68.4%
CC1CCN(Cc2c(O)ccc3cc(-c4nc5ccccc5s4)c(=O)oc23)CC1,% growth inhibition,[2],18.7 ± 17%
same,% inhibition of schizont-to-ring transition,[3]; 1 µM,6.51%
same,% inhibition of schizont-to-ring transition,[3]; 3 µM,20.3%
same,% inhibition of schizont-to-ring transition,[3]; 10 µM,38.2%
same,plaque count per well,[4],0
Oc1ccccc1CNCC12CC3CC(CC(C3)C1)C2,EC50 growth inhibition,[1],96.1 nM
same,% growth inhibition,[2],52.8 ± 12%
same,% inhibition of schizont-to-ring transition,[3]; 1 µM,64%
same,% inhibition of schizont-to-ring transition,[3]; 3 µM,64.7%
same,% inhibition of schizont-to-ring transition,[3]; 10 µM,67.1%
O=c1cc(NC2CCN(CCCc3ccccc3)CC2)c2cc(Cl)ccc2o1,EC50 growth inhibition,[1],396 nM
same,% growth inhibition,[2],22 ± 19%
same,% inhibition of schizont-to-ring transition,[3]; 1 µM,61.1%
same,% inhibition of schizont-to-ring transition,[3]; 3 µM,66.7%
same,% inhibition of schizont-to-ring transition,[3]; 10 µM,68.9%
